In PubChem BioAssay AID330 (DTP/NCI, 2004):
Where “and” joins values, the source holds several entries; their conditions need not be identical. Equal entries are not always repeated. Toxic doses and inconclusive results are not listed.

System: P388 leukemia ip, CD2F1 mice, survival T/C
Assay: NCI In Vivo Anticancer Drug Screen. Data for tumor model P388 Leukemia (intraperitoneal) in CD2F1 (CDF1) mice
Details: endpoint: median survival time, higher = longer survival
How it was run: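 Mice carrying the transplanted tumor received test compound or vehicle. Survival was recorded in each group, and the value is the treated-group measurement divided by that of the vehicle-treated control group.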

[1] = dose: 100.0 mg/kg/injection, schedule: Q01DX001 (ip), vehicle: saline with Tween-80
[2] = dose: 200.0 mg/kg/injection, schedule: Q01DX001 (ip), vehicle: saline with Tween-80
[3] = dose: 400.0 mg/kg/injection, schedule: Q01DX001 (ip), vehicle: saline with Tween-80
[4] = dose: 50.0 mg/kg/injection, schedule: Q01DX009 (ip), vehicle: saline with Tween-80
[5] = dose: 100.0 mg/kg/injection, schedule: Q01DX009 (ip), vehicle: saline with Tween-80
[6] = dose: 50.0 mg/kg/injection, schedule: Q01DX005 (ip), vehicle: saline with Tween-80
[7] = dose: 100.0 mg/kg/injection, schedule: Q04DX002 (ip), vehicle: saline with Tween-80
[8] = dose: 200.0 mg/kg/injection, schedule: Q04DX002 (ip), vehicle: saline with Tween-80
[9] = dose: 400.0 mg/kg/injection, schedule: Q04DX002 (ip), vehicle: saline with Tween-80
[10] = dose: 50.0 mg/kg/injection, schedule: Q01DX009 (ip), vehicle: saline
[11] = dose: 100.0 mg/kg/injection, schedule: Q01DX009 (ip), vehicle: saline
[12] = dose: 200.0 mg/kg/injection, schedule: Q01DX009 (ip), vehicle: saline
[13] = dose: 60.0 mg/kg/injection, schedule: Q01DX005 (ip), vehicle: Klucel (hydroxypropylcellulose) (HPC)
[14] = dose: 120.0 mg/kg/injection, schedule: Q01DX005 (ip), vehicle: Klucel (hydroxypropylcellulose) (HPC)
[15] = dose: 50.0 mg/kg/injection, schedule: Q01DX005 (ip), vehicle: Klucel (hydroxypropylcellulose) (HPC)
[16] = dose: 100.0 mg/kg/injection, schedule: Q01DX005 (ip), vehicle: Klucel (hydroxypropylcellulose) (HPC)
[17] = dose: 200.0 mg/kg/injection, schedule: Q01DX005 (ip), vehicle: Klucel (hydroxypropylcellulose) (HPC)
[18] = dose: 200.0 mg/kg/injection, schedule: Q01DX009 (ip), vehicle: saline with Tween-80
[19] = dose: 400.0 mg/kg/injection, schedule: Q04DX003 (ip), vehicle: saline with Tween-80

Compound: C=Cc1ccc(NC(=O)CCn2ccc(N)nc2=O)cc1
- T/C [1]: 102 % of control
- T/C [2]: 102 % of control
- T/C [3]: 103 % of control

Compound: CCOC(=O)C(Cc1ccc([N+](=O)[O-])cc1)N1C(=O)c2ccccc2C1=O (stereo not drawn)
- T/C (dose: 50.0 mg/kg/injection, schedule: Q01DX009 (ip), vehicle: distilled water + Tween-80 + alcohol): 98 % of control
- T/C (dose: 100.0 mg/kg/injection, schedule: Q01DX009 (ip), vehicle: distilled water + Tween-80 + alcohol): 89 % of control
- T/C (dose: 200.0 mg/kg/injection, schedule: Q01DX009 (ip), vehicle: distilled water + Tween-80 + alcohol): 92 % of control

Compound: NNC(=O)C(N)=O
- T/C (dose: 12.5 mg/kg/injection, schedule: Q01DX009 (ip), vehicle: saline with Tween-80): 100 % of control
- T/C (dose: 25.0 mg/kg/injection, schedule: Q01DX009 (ip), vehicle: saline with Tween-80): 104 % of control
- T/C [4]: 100 % of control
- T/C [5]: 97 % of control

Compound: O=C(Nc1cccc(Cl)c1Cl)OCCCc1ccncc1
- T/C [4]: 100 % of control
- T/C [5]: 100 % of control

Compound: CC(=O)Oc1cccc2c1CC(C[Se]c1ccccc1)C(=O)O2 (stereo not drawn)
- T/C [6]: 94 % of control
- T/C (dose: 100.0 mg/kg/injection, schedule: Q01DX005 (ip), vehicle: saline with Tween-80): 89 % of control

Compound: C=C1C(=O)OC2C1CCC(=C)C1CC(O)C(=C)C12 (stereo not drawn)
- T/C (dose: 9.37 mg/kg/injection, schedule: Q01DX009 (ip), vehicle: suspension in saline): 103 % of control
- T/C (dose: 18.75 mg/kg/injection, schedule: Q01DX009 (ip), vehicle: suspension in saline): 119 % of control and 123 % of control
- T/C (dose: 37.5 mg/kg/injection, schedule: Q01DX009 (ip), vehicle: suspension in saline): 121 % of control

Compound: c1ccc(-c2cc3ccc4cccnc4c3o2)cc1
- T/C [7]: 91 % of control
- T/C [8]: 87 % of control
- T/C [9]: 103 % of control

Compound: CCOP(O)(=S)OCC.[Sm]
- T/C (dose: 100.0 mg/kg/injection, schedule: Q01DX001 (ip), vehicle: Klucel (hydroxypropylcellulose) (HPC)): 88 % of control
- T/C (dose: 200.0 mg/kg/injection, schedule: Q01DX001 (ip), vehicle: Klucel (hydroxypropylcellulose) (HPC)): 88 % of control
- T/C (dose: 400.0 mg/kg/injection, schedule: Q01DX001 (ip), vehicle: Klucel (hydroxypropylcellulose) (HPC)): 94 % of control

Compound: Fc1ccc(C2SCCCS2)cc1
- T/C [10]: 92 % of control
- T/C [11]: 92 % of control
- T/C [12]: 101 % of control

Compound: O=C(c1cc(Cl)c(Cl)c([N+](=O)[O-])c1Cl)C(Cl)Cl
- T/C (dose: 25.0 mg/kg/injection, schedule: Q04DX003 (ip), vehicle: Klucel (hydroxypropylcellulose) (HPC)): 104 % of control
- T/C (dose: 50.0 mg/kg/injection, schedule: Q04DX003 (ip), vehicle: Klucel (hydroxypropylcellulose) (HPC)): 99 % of control
- T/C (dose: 100.0 mg/kg/injection, schedule: Q04DX003 (ip), vehicle: Klucel (hydroxypropylcellulose) (HPC)): 103 % of control

Compound: CC1CCC2CC(=O)NC(=O)CC12 (stereo not drawn)
- T/C (dose: 6.25 mg/kg/injection, schedule: Q04DX003 (ip), vehicle: saline with Tween-80): 100 % of control
- T/C (dose: 12.5 mg/kg/injection, schedule: Q04DX003 (ip), vehicle: saline with Tween-80): 100 % of control
- T/C (dose: 25.0 mg/kg/injection, schedule: Q04DX003 (ip), vehicle: saline with Tween-80): 104 % of control

Compound: CC(O)Cc1c(N)n2c(nc3ccccc32)[nH]c1=O (stereo not drawn)
- T/C [13]: 102 % of control
- T/C [14]: 97 % of control
- T/C (dose: 240.0 mg/kg/injection, schedule: Q01DX005 (ip), vehicle: Klucel (hydroxypropylcellulose) (HPC)): 92 % of control

Compound: CN1C(C(=O)Nc2nccs2)=C(O)c2ccccc2S1(=O)=O
- T/C (dose: 60.0 mg/kg/injection, schedule: Q01DX005 (ip), vehicle: saline with Tween-80): 105 % of control
- T/C (dose: 120.0 mg/kg/injection, schedule: Q01DX005 (ip), vehicle: saline with Tween-80): 98 % of control

Compound: NC(CCC(=O)NC(CSC(c1ccccc1)(c1ccccc1)c1ccccc1)C(=O)NCC(=O)O)C(=O)O (stereo not drawn)
- T/C [13]: 101 % of control and 115 % of control
- T/C [14]: 101 % of control and 113 % of control

Compound: COC(=O)c1n[nH]n(Cc2cccs2)c1=O (tested in a mixture with another compound)
- T/C [15]: 108 % of control
- T/C [16]: 103 % of control
- T/C [17]: 97 % of control

Compound: CC(C)N1CCC(Oc2ccc3ccccc3n2)C1 (stereo not drawn)
- T/C (dose: 50.0 mg/kg/injection, schedule: Q01DX009 (ip), vehicle: Klucel (hydroxypropylcellulose) (HPC)): 100 % of control
- T/C (dose: 100.0 mg/kg/injection, schedule: Q01DX009 (ip), vehicle: Klucel (hydroxypropylcellulose) (HPC)): 91 % of control

Compound: CN/N=C/c1cc(=O)n(C)c(=O)n1C
- T/C [4]: 101 % of control
- T/C [5]: 101 % of control
- T/C [18]: 99 % of control

Compound: CCN(CC)CCCC(Nc1c2ccc(Cl)cc2nc2ccc(OC)cc12)c1ccc(F)cc1 (stereo not drawn)
- T/C (dose: 12.5 mg/kg/injection, schedule: Q01DX005 (ip), vehicle: saline with Tween-80): 96 % of control
- T/C (dose: 25.0 mg/kg/injection, schedule: Q01DX005 (ip), vehicle: saline with Tween-80): 98 % of control
- T/C [6]: 100 % of control and 107 % of control

Compound: C1OC1CO[C@@H]1CO[C@H]2[C@@H]1OC[C@H]2OCC1CO1 (stereo partly drawn)
- T/C (dose: 12.5 mg/kg/injection, schedule: Q01DX009 (ip), vehicle: saline): 120 % of control
- T/C [11]: 194 % of control
- T/C (dose: 100.0 mg/kg/injection, schedule: Q01DX009 (ip), vehicle: suspension in saline): 163 % of control
- T/C [12]: 192 % of control
- T/C (dose: 400.0 mg/kg/injection, schedule: Q01DX009 (ip), vehicle: saline with Tween-80): 213 % of control
- T/C (dose: 400.0 mg/kg/injection, schedule: Q01DX009 (ip), vehicle: saline): 94 % of control
- T/C (dose: 400.0 mg/kg/injection, schedule: Q01DX009 (ip), vehicle: suspension in saline): 100 % of control
- T/C [19]: 186 % of control
- T/C (dose: 600.0 mg/kg/injection, schedule: Q04DX003 (ip), vehicle: saline with Tween-80): 200 % of control

Compound: O=S(=O)(C#Cc1ccccc1)C(F)(F)F
- T/C (dose: 100.0 mg/kg/injection, schedule: Q01DX001 (ip), vehicle: saline): 105 % of control
- T/C (dose: 200.0 mg/kg/injection, schedule: Q01DX001 (ip), vehicle: saline): 105 % of control
- T/C (dose: 400.0 mg/kg/injection, schedule: Q01DX001 (ip), vehicle: saline): 106 % of control

Compound: COc1cc2cnc(-c3ccc(Cl)c(Cl)c3)cc2cc1OC
- T/C (dose: 25.0 mg/kg/injection, schedule: Q01DX009 (ip), vehicle: saline): 100 % of control
- T/C [10]: 97 % of control
- T/C [11]: 89 % of control

Compound: COc1c(-c2ccccc2)cc(-c2ccccc2)c(-c2ccccc2)c1-c1ccccc1
- T/C [7]: 93 % of control
- T/C [8]: 86 % of control
- T/C [9]: 89 % of control

Compound: Cc1cc(=O)c2cc3nc(-c4cccnc4)oc3c(Br)c2o1
- T/C [15]: 97 % of control
- T/C [16]: 96 % of control
- T/C [17]: 88 % of control

Compound: CN(C)CC(CN(C)C)C(=O)c1ccc(OC2OC(CO)C(O)C(O)C2O)cc1 (stereo not drawn)
- T/C (dose: 60.0 mg/kg/injection, schedule: Q01DX005 (ip), vehicle: saline): 103 % of control
- T/C (dose: 120.0 mg/kg/injection, schedule: Q01DX005 (ip), vehicle: saline): 99 % of control
- T/C (dose: 240.0 mg/kg/injection, schedule: Q01DX005 (ip), vehicle: saline): 105 % of control

Compound: CCC1=[N+](C)c2ccccc2C1(C)C
- T/C (dose: 25.0 mg/kg/injection, schedule: Q04DX003 (ip), vehicle: saline): 100 % of control
- T/C (dose: 50.0 mg/kg/injection, schedule: Q04DX003 (ip), vehicle: saline): 99 % of control
- T/C (dose: 100.0 mg/kg/injection, schedule: Q04DX003 (ip), vehicle: saline): 107 % of control

Compound: CCC(c1ccc(Cl)cc1)C(C#N)c1ccccc1 (stereo not drawn)
- T/C (dose: 100.0 mg/kg/injection, schedule: Q04DX003 (ip), vehicle: saline with Tween-80): 100 % of control
- T/C (dose: 200.0 mg/kg/injection, schedule: Q04DX003 (ip), vehicle: saline with Tween-80): 97 % of control
- T/C [19]: 100 % of control

Compound: COc1cccc(C(=O)CCN(C)C)c1
- T/C [10]: 98 % of control and 106 % of control
- T/C [11]: 99 % of control and 105 % of control

Compound: CCCOC(=O)CP(=O)(O)O
- T/C [4]: 101 % of control
- T/C [5]: 95 % of control
- T/C [18]: 87 % of control

Compound: OCC(Br)(Br)Br
- T/C [1]: 100 % of control
- T/C [2]: 98 % of control
- T/C [3]: 100 % of control
